Consider 4 compounds from US5976497A, “Dopamine D4 receptor ligands” (Resolution Pharmaceuticals, Inc., priority 1997, dated 1999).

A value given as a limit tells only on which side of the number the result lay.

One assay addresses D4 receptor. To be noted: marketed products, background statement; cited from earlier work.
The subject of assay [1] is D4 receptor relative to the D2 receptor. To be noted: marketed products, background statement; cited from earlier work.
The next assay addresses T1, D4 (Homo sapiens, UniProt P21917, DEL265-296).
T1 construct: expressed in transfected cells; host or cells: HEK 298 cells (so in the source); membrane preparations
T1 sequence (P21917 with tags, fused parts or gaps DEL265-296): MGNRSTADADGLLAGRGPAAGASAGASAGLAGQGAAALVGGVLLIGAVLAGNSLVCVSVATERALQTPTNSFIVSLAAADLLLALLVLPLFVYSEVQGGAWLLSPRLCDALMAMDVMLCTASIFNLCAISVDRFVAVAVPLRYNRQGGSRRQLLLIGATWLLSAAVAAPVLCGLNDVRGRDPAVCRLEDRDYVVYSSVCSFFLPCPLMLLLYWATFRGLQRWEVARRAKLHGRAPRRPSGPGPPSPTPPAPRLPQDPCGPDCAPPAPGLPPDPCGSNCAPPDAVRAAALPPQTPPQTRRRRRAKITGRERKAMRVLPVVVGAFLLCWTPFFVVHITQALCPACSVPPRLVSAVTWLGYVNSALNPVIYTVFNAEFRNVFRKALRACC
In words: D4 receptor-binding affinity (reduction of ^3 H-spiperone binding). To be noted: for Ki: ^3 H-spiperone displacement, Ki by Cheng and Prusoff transformation of IC50. Here is the method: (§1) The potency of the test compound to reduce ^3 H-spiperone binding is directly correlated to its binding affinity for the receptor.
(§2) The test compounds were assayed at a range of concentrations and the % inhibition of ^3 H-spiperone binding at each test concentration was measured. Specific binding in the absence of test compound is the difference of total binding minus non-specific binding and similarly specific binding (in the presence of test compound) is the difference of displacement binding minus non-specific binding.
(§3) where [L] is the concentration of ^3 H-spiperone used in the assay and KD is the dissociation constant of ^3 H-spiperone determined independently under the same binding conditions.

The next assay deals with T2, D2 (Homo sapiens, UniProt P14416).
T2 construct: expressed in transfected cells; host or cells: GH4C1 (rat pituitary) cells, stably transfected; membrane preparations
In words: D2 receptor-binding affinity (reduction of ^3 H-spiperone binding). The conditions noted are these: for Ki: ^3 H-spiperone displacement, Ki by Cheng and Prusoff transformation of IC50. On the procedure:
as §1, §2, §3

T2 sequence (P14416 1-414 isoform P14416-2): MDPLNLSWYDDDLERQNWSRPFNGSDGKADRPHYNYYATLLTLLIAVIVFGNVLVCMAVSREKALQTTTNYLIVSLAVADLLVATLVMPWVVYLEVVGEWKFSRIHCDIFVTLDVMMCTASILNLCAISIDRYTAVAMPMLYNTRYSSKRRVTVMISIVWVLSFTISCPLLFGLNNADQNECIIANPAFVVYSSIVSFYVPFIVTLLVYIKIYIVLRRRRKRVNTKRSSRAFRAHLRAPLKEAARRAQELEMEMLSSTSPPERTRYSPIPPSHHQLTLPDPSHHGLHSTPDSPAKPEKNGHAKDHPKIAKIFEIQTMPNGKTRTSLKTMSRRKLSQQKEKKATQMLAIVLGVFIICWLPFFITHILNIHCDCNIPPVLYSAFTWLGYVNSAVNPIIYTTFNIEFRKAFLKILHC

As for `CN1CCN(C2=Nc3cc(Cl)ccc3Oc3ccccc32)CC1` [isoloxapine], the Ki at D4 receptor was approximately 20 nM. Further, in assay [1], the “preference for binding to the D4 receptor relative to the D2 receptor” value is listed as “about 10 fold”.
For the compound “3-[4-(pyridin-2-yl)-piperazin-1-yl]methyl-1H-pyrrolo[2,3-b]pyridine [Example 1]”, the inhibition constant Ki at D4 was determined as 1 nM; at D2, 3660 nM.
As to `Brc1ccc(N2CCN(Cc3c[nH]c4ncccc34)CC2)nc1` [Example 3, 3-[4-(5-bromopyridin-2-yl)-piperazin-1-yl]methyl-1H-pyrrolo[2,3-b]pyridine], the inhibition at 0.001 µM was 26% at D4 (1 nM, ^3 H-spiperone) and less than 10% on D2 (1 nM, ^3 H-spiperone). Also, the inhibition at 0.01 µM on D4 (10 nM, ^3 H-spiperone) is 78%; on D2 (10 nM, ^3 H-spiperone), less than 10%. Also, the inhibition at 0.1 µM at D4 (100 nM, ^3 H-spiperone) is 98%; at D2 (100 nM, ^3 H-spiperone), less than 10%.
Take “3-[4-(5-iodopyridin-2-yl)-piperazin-1-yl]methyl-1H-pyrrolo[2,3-b]pyridine [Example 2]”: the inhibitory constant (Ki) was 0.91 nM on D4 and 621 nM at D2.

For orientation: Ki means the dissociation constant of the complex between target and ligand, obtained from inhibition or displacement. What is called inhibition is the share of the control response that was lost under treatment. A lower inhibition goes with little suppression.
